Experimental data as given in patent US8648050B2 (University of Mississippi, priority 2011, dated 2014).
Values after ≈ are worked out from the molar mass of the structure shown. “Also recorded” adds a separate entry of the source. Read-outs that look alike come from different tables or passages of the source.

Columns and labels:
in vivo = settings: Balb/c, mouse
[1] = In vivo renal & hemodynamic assessment; parameters: species or system Sprague-Dawley rats
From the text: In vivo renal & hemodynamic Assessment: Sprague-Dawley (Harlan Sprague Dawley) rats (224-249 g) were housed in a temperature-controlled room on a 12:12-h light-dark cycle and fed standard chow (Harlan Teklad; Madison, Wis.) and water ad libitum for a period of at least 1 week before surgical procedures and experimental treatment. All procedures and experimental designs were in accordance with the guidelines of the American Association for Accreditation of Laboratory Animal Care (AAALAC) and approved by the University of Mississippi Medical Center's Institutional Animal Care and Use Committee. Animals were anesthetized using isoflurane delivered by an anesthesia machine (Vaporizer for Forane Anesthetic: Ohio Medical Products, Madison, Wis.). A midline lower abdominal incision was made, and the bladder was cannulated with flare-tipped PE-90 tubing for urine collection. Catheters of heat-stretched PE-50 tubing were inserted into the left femoral artery and right femoral vein for blood sampling and blood pressure monitoring. After implantation, each catheter was filled with a 50:50 solution of heparin and saline and exteriorized at the back of the neck. All animals were instrumented with a specially made Silastic catheter and steel bladder as described by Gellai and Valtin for renal clearance measurements (5). On complete instrumentation, all animals were allowed to recover for a period of 4 days.
Doses studied for assessment of renal toxicity range started at 1 mg/kg as a single dose infused at 0.015 mL/min over 1 hour. Incremental increases in dose were performed until 2 mg/kg was achieved. That dose was deemed to be nephrotoxic on the basis of a 16% reduction in mean glomerular filtration rate (GFR). […] In experimental studies, animals were treated with saline for up to 1 day and then placed in modified restraining cages for renal function measurements. Each animal served as their own control, prior to receiving AmB formulations. […] The femoral vein catheter was then connected to an infusion pump. Isotonic saline containing sodium [^125I]iothalamate and para-aminohippurate (PAH) was infused intravenously at a fixed rate of 3 mL/h After a 60-minute stabilization period, two 20-minute urine collections were obtained, followed by collection of blood samples. Urine volume was determined gravimetrically. Sodium and potassium concentrations in plasma and urine were measured by flame photometry. Glomerular filtration rate and effective renal plasma flow were calculated from the radioactivity of ^125I and concentration of PAH, respectively, in plasma and urine. PAH concentration was determined colorimetrically. Arterial pressure was monitored in conscious animals with a pressure transducer connected to a Grass model 7B chart recorder for continuous recording. […]

Candida albicans = test: Antifungal susceptibility testing of HPLC fractions, NCCLS broth microdilution (Example 1); format: cell-based
Protocol: Test Isolates: One Candida albicans isolate, American Type Culture Collection (ATCC) strain 90028, is selected.
Antifungal Susceptibility Testing: Sample MIC's are determined by broth microdilution according to NCCLS guidelines. Isolates are subcultured twice on potato dextrose agar (PDA) plates (Remei, Lenexa, Kans., USA). Fungal suspensions are prepared by transferring four to five colonies into about 5 mL of sterile about 0.9% saline. […] 100 uL of inoculum is added to each well of a microtiter tray containing 100 uL of serially diluted drug in RPMI solution. Sample concentrations of about 0.0039, about 0.0078, about 0.0156, about 0.0312, about 0.0624, about 0.125, about 0.25, about 0.5, about 1, about 2, and about 4 ug/mL are achieved. The trays are incubated in a humid, dark chamber for about 48 hours at about 35° C. […] MIC determinations are performed a minimum of two times with an additional run if the quantity of sample drug allowed for it. It is decided to determine the MFC on samples which achieved definitive MICs. After the MIC is read at 48-h, a 1 uL sample is withdrawn from each microtiter tray with a 96 pin replicator (Boekel, Feasterville, Pa.) and plated onto an RPMI agar plate. Samples are incubated in a humid, dark chamber for about 48 hours at about 35° C. MFC is determined by the complete lack of organism growth on the plate and recorded as the corresponding well in the MIC tray.

[2] = published, cited from earlier work
C. albicans ATCC 44858 = test: Murine Candida albicans systemic infection model (survival, tissue burden); format: in vivo, Balb/c mice
Protocol: Survival in an Infection Model: Evaluation of efficacy was performed in a murine Candida albicans systemic infection model. For each experiment, an isolate of C. albicans ATCC 44858 was thawed and then incubated overnight on Sabouraud dextrose agar (Unipath Limited). One colony was transferred into 25 mL of Sabouraud dextrose broth (Unipath Limited). The broth was incubated on an orbital mixer for 8 hours at 37° C., centrifuged to pellet the organisms, and then washed and resuspended in saline. Density was adjusted using optical density at 490 nm. Initial studies were performed in which 0.15-0.2 mL saline containing this Candida strain over a range of densities was injected intravenously to determine the optimum inoculum. The 90% lethal dose (LD90) was defined as the inoculum of the organism that caused 90% mortality 10 days post-infection. The inocula for the all isolates are estimated at 3-5×10^8 CFU/mL. These inocula were used in this study.
Specific-pathogen-free Balb/c mice (age 12-20 weeks) were obtained from IFFA Credo (L'Arbresle, France). Female mice were infected with 0.15-0.2 mL of C. albicans inoculum (4×10^8 CFU/mL) by injection into the lateral tail vein and then returned to their home cages. Post-infection viability counts were performed to ensure the correct inoculum had been given. […] At time of death or animal sacrifice, vital organs (liver, spleen, heart, bladder, muscle) were isolated and transferred into 2 mL cold sterile phosphate-buffered saline. Samples were frozen at −80° C. until analysis. At batch processing time, each sample was thawed and weighed. The organs were divided into 2 batches. Organs in one batch were homogenized in a tissue grinder for 14-30 seconds and then diluted 1:10, 1:100, and 1:1000. A 100 μL aliquot of each sample was plated on Sabourauds dextrous agar and incubated at 37° in a humidified incubator. Plates were examined daily for 7 days, and colony counts were recorded from all plates each day. The second batch of organ tissue was evaluated microscopically. Leukopenia was not induced by intraperitoneal administration of cyclophosphamide at 100 mg/kg 4 days before C. albicans inoculation due to the overall success of the model and the desire to maintain competency of the immune system.
Statistical Analysis: Animal survival between treated and untreated infected animals was selected as the primary outcome measure.

[3] = Stability of AmBHP to pH and temperature during work up; format: physicochemical
From the text: As a point in fact, AmBHP can be obtained with elution in ethanol containing 1% 1 N HCL (0.01 N HCl in water has a pH ˜2) if the pH during post-column work up is maintained between 5-7. Nor is the apparent purity of AmBHP adversely affected by a short exposure to pH ˜11, as occurs during solubilization with deoxycholate. However, at both extremes, AmBHP may degrade during evaporation of solvent under air/nitrogen or during lyophilization. […] During evaporation of solvent, the temperature of the heating block remained at about 40° C. or less. The presence of DMSO or DMF during drying/lyophilization or prolonged storage (even at −20° C.) may result in degradation.

[4] = test system: IL-1β expression by THP-1 cells; test: In vitro infusion related reaction assay (IL-1β release, ELISA); settings: FIG. 3 or 9
Protocol: Cells are then incubated for about 2 hours. Supernatants are collected from each well after three freeze-thaws and stored at about −70° C. until assay. Samples are assayed for IL-1β using an enzyme-linked immunosorbent assay (Cistron Biotechnology; Pine Brook, N.J.) (ELISA). The procedure involves a four-step test carried out in microtiter wells which are coated with IL-1β specific monoclonal antibody. […] There is no cross-reactivity for IL-1α, IL-2, TNF-α or interferon. […] Data are the mean of duplicate assays and are expressed in pg/mL on the basis of standards supplied by the manufacturer.
Supernatants were collected from each well after three freeze-thaws cycles and stored at −80° C. until assayed. Samples were assayed for interleukin-1β (IL-1β) using an enzyme-linked immunosorbent assay (Cistron Biotechnology; Pine Brook, N.J.).

For CC1/C=C/C=C/C=C/C=C/C=C/C=C/C=C/C(OC2OC(C)C(O)C(N)C2O)CC2OC(O)(CC(O)CC(O)C(O)CCC(O)CC(O)CC(=O)OC(C)C(C)C1O)CC(O)C2C(=O)O (stereo not drawn) [AmB, Amphotericin B], the LD50 (in vivo) was roughly 2.5 mg/kg, the “mean GFR” value ([1]; rats, 2 mg/kg over one hour) was 1.92 mL/min and the MIC (Candida albicans; 100% inhibition vs control, 48 hours at 35° C., Candida albicans B311 (footnote 1), read-out: Median MIC100) was 0.25 µg/mL (≈ 0.271 µM). The MIC80 (Candida albicans; Candida albicans, 48 h, read-out: Median MIC80) was 0.1 µg/mL (≈ 0.108 µM), the MFC (Candida albicans; Candida albicans, ATCC90028, fungicidal to all cells, no growth on agar plates, footnotes 1,2: C. albicans B311, ATCC 90028) was 0.625 µg/mL (≈ 0.676 µM) and the “LD50, average parenteral dose” value ([2]; OF-1, CD-1 and Balb/c mice) was 2.78 mg/kg. The “LD50, range” value ([2]; OF-1, CD-1 and Balb/c mice) was 2.3 to 3.46 mg/kg, the LD50 ([2]; fasting mice) was 1.51 mg/kg and the LD50 ([2]; fed animals) was 2.38 mg/kg.

For CC1/C=C/C=C/C=C/C=C/C=C/C=C/C=C/C(OC2OC(C)C(O)C(N)C2O)CC2OC(O)(CC(O)CC(O)C(O)CCC(O)CC(O)CC(=O)OC(C)C(C)C1O)CC(O)C2C(=O)O (stereo not drawn) [AmBHP, Amphotericin B Highly Purified], the “mortality in infected mice” value (C. albicans ATCC 44858; 0.5 mg/kg, 5 days post infection) was 20%, the “activity against fungi in blood” value (C. albicans ATCC 44858; blood) was “as effective against blood-borne fungi as was Pharma-Tek AmB” and the “colony counts from lungs and livers” value (C. albicans ATCC 44858; compared to AmB) was “lower colony counts”. The “C. albicans tissue burden, efficacy” value (C. albicans ATCC 44858; post-mortem liver, spleen, heart, kidney, lung and blood) was “comparable to those of Pharma-Tek® AmB and AmBLC”, the “stability on exposure to variations in pH” value ([3]; pH between ˜2 and ˜11, short-term) was “does not appear to adversely affect AmB” and the stability to temperature ([3]; post-column work up) was “may degrade at high temperature”. For the same compound, the “other indices of cardio-renal function” value ([1]; doses 10-fold outside the range of toxicity for AmB) was “not adversely affected”, the “mean GFR” value ([1]; rats, 20 mg/kg over one hour) was 2.03 mL/min and the “renal function (GFR), decrease as percent control” value ([1]; rats, 20 mg/kg over one hour) was 7.9%. For the same compound, the “general toxicity in vivo (apparent LD50 and survival of Candida-infected mice), less than generic or lipid-complexed AmB” value was “roughly 2 fold”, the “cytokine (IL-1β) response, comparison in words” value [4] was “Less cytokine is expressed; also recorded: less of a cytokine response than did AmB; also recorded: failed to further increase cytokine release at concentrations as high as 21.6 μM” and the “toxicity by ability of THP-1 cells to exclude trypan blue” value (THP-1 cells) was “less disruptive to the cell membrane than is commercial deoxycholate-formulated AmB”.
